Key:
[1] = system: Erk1/2 phosphorylation; experiment: Erk1/2 Phosphorylation Assay (western blot), Panc-1; assay type: cell-based, human; conditions: at 10 μM, * = activation
Procedure, shortened: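 Phospho-Erk1/2 (Thr202/Tyr204) was detected by western blot in lysates of Panc-1 cells (KRas G12D). These had 6 h, 37° C exposure to 10 μM compound or a dilution series for IC50, in 0.3% DMSO. Cells were either starved overnight in 0.5% FBS with a 15-min 1.5 ng/ml EGF pulse, or kept unstimulated in 10% FBS.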

[2] = system: KRas G12C mutant; experiment: Ras GTP Binding Domain Inhibition Assay (Ras Superfamily Assay); conditions: 20 μM compound; for KRas G12C mutant + SOS: % inh.: with SOS; for KRas G12C mutant: % inh.: without SOS
Procedure, shortened: (§1)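 Ni-plate capture of His-tagged protein (10-30 μg/mL, o/n 4° C); cpd 20 μM or dilution series, 1% DMSO, 3 h RT ± Sos 556-1049 last h; 100 nM Cy-labelled GTP 45 min RT; 3× wash; fluorescence read.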

[3] = system: KRas G12D mutant; experiment: as above; conditions: 20 μM compound; for KRas G12D mutant + SOS: % inh.: with SOS; for KRas G12D mutant: % inh.: without SOS
Procedure, shortened: as §1

[4] = system: KRas Q61H mutant; experiment: as above; conditions: 20 μM compound; for KRas Q61H mutant + SOS: % inh.: with SOS; for KRas Q61H mutant: % inh.: without SOS
Procedure, shortened: as §1

[5] = system: KRas wild type; experiment: as above; conditions: 20 μM compound; for KRas wild type + SOS: % inh.: with SOS; for KRas wild type: % inh.: without SOS
Procedure, shortened: as §1

[6] = target: T1, Rac-1 (Homo sapiens, UniProt P63000); experiment: as above; conditions: read-out: Rac-1: % inh.
T1 construct: made in house
Procedure, shortened: as §1

[7] = target: T2, Rho-A (Homo sapiens, UniProt P61586); experiment: as above; conditions: read-out: Rho-A: % inh..
T2 construct: made in house
T2 sequence (P61586 whole entry): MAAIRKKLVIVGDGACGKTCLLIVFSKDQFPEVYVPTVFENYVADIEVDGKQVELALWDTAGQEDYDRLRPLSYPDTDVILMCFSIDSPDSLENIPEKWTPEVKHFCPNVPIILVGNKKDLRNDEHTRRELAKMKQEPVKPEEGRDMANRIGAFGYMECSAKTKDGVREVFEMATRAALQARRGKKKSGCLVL
Procedure, shortened: as §1

| SMILES | % inh of Erk1/2 phosphorylation in Panc-1 [1] | KRas G12C mutant + SOS: % inh. [2] | KRas G12C mutant: % inh. [2] | KRas G12D mutant + SOS: % inh. [3] | KRas G12D mutant: % inh. [3] | KRas Q61H mutant + SOS: % inh. [4] | KRas Q61H mutant: % inh. [4] | KRas wild type + SOS: % inh. [5] | KRas wild type: % inh. [5] | inhibition at 20 µM [6] [%] | inhibition at 20 µM [7] [%] |
| --- | --- | --- | --- | --- | --- | --- | --- | --- | --- | --- | --- |
| COc1cccc(-c2cn3nc(-c4nccn4C)nc(N[C@@H]4CC[C@@H](OC)C4)c3c2-c2ccccn2)c1F (racemic) [Compound 46, rac 6-(2-Fluoro-3-methoxyphenyl)-N-((1R,3R)-3-methoxycyclopentyl)-2-(1-methyl-1H-imidazol-2-yl)-5-(pyridin-2-yl)pyrrolo[2,1-f][1,2,4]triazin-4-amine] | 0 (0% inhibition) | A (A = 1-25% inhibition) | B (B = 26-49% inhibition) | A (A = 1-25% inhibition) | B (B = 26-49% inhibition) | D (D = 76-100% inhibition) | D (D = 76-100% inhibition) | A (A = 1-25% inhibition) | A (A = 1-25% inhibition) | 50 to 75 | 26 to 49 |
| COc1cccc(Nc2nc(-c3nccn3C)nn3cc(-c4ccn(C(C)C)n4)c(-c4ccccc4)c23)n1 [Compound 23, 6-(1-Isopropyl-1H-pyrazol-3-yl)-N-(6-methoxypyridin-2-yl)-2-(1-methyl-1H-imidazol-2-yl)-5-phenylpyrrolo[2,1-f][1,2,4]triazin-4-amine] | D (85-100% inhibition) | 0 (0 = 0% inhibition) | A (A = 1-25% inhibition) | 0 (0 = 0% inhibition) | A (A = 1-25% inhibition) | 0 (0 = 0% inhibition) | A (A = 1-25% inhibition) | A (A = 1-25% inhibition) | 0 (0 = 0% inhibition) | 1 to 25 | 1 to 25 |
| COc1cccc(-c2cn3nc(-c4nccn4C)nc(N[C@H]4C[C@@H](OC)C4)c3c2-c2ccccc2)c1Cl [Compound 31, 6-(2-Chloro-3-methoxyphenyl)-N-((1s,3s)-3-methoxycyclobutyl)-2-(1-methyl-1H-imidazol-2-yl)-5-phenylpyrrolo[2,1-f][1,2,4]triazin-4-amine] | D (85-100% inhibition) | 0 (0 = 0% inhibition) | A (A = 1-25% inhibition) | B (B = 26-49% inhibition) | A (A = 1-25% inhibition) | A (A = 1-25% inhibition) | 0 (0 = 0% inhibition) | 0 (0 = 0% inhibition) | A (A = 1-25% inhibition) | 1 to 25 | 1 to 25 |
| COc1cccc(-c2cn3nc(-c4nccn4C)nc(N[C@H]4C[C@H](OC)C4)c3c2-c2ccn(C)n2)c1F [Compound 47, 6-(2-Fluoro-3-methoxyphenyl)-N-((1r,3r)-3-methoxycyclobutyl)-2-(1-methyl-1H-imidazol-2-yl)-5-(1-methyl-1H-pyrazol-3-yl)pyrrolo[2,1-f][1,2,4]triazin-4-amine] | C (50-84% inhibition) | 0 (0 = 0% inhibition) | 0 (0 = 0% inhibition) | A (A = 1-25% inhibition) | A (A = 1-25% inhibition) | A (A = 1-25% inhibition) | A (A = 1-25% inhibition) | 0 (0 = 0% inhibition) | 0 (0 = 0% inhibition) | 0 | 1 to 25 |
| COc1cc(-c2cn3nc(-c4nccn4C)nc(Nc4cc(OC)ncn4)c3c2C)ccn1 [Compound 50, 6-(2-Methoxypyridin-4-yl)-N-(6-methoxypyrimidin-4-yl)-5-methyl-2-(1-methyl-1H-imidazol-2-yl)pyrrolo[2,1-f][1,2,4]triazin-4-amine] | B* (26-49% activation) | A (A = 1-25% inhibition) | A (A = 1-25% inhibition) | C (C = 50-75% inhibition) | C (C = 50-75% inhibition) | D (D = 76-100% inhibition) | D (D = 76-100% inhibition) | B (B = 26-49% inhibition) | C (C = 50-75% inhibition) | 26 to 49 | 50 to 75 |
| COc1ccc(-c2cn3nc(-c4nccn4C)nc(Nc4cc(OC)ncn4)c3c2C)cn1 [Compound 66, 6-(6-Methoxypyridin-3-yl)-N-(6-methoxypyrimidin-4-yl)-5-methyl-2-(1-methyl-1H-imidazol-2-yl)pyrrolo[2,1-f][1,2,4]triazin-4-amine] | C (50-84% inhibition) | C (C = 50-75% inhibition) | D (D = 76-100% inhibition) | D (D = 76-100% inhibition) | D (D = 76-100% inhibition) | D (D = 76-100% inhibition) | D (D = 76-100% inhibition) | D (D = 76-100% inhibition) | D (D = 76-100% inhibition) | 76 to 100 | 76 to 100 |
| COc1cccc(Nc2nc(-c3nccn3C)nn3ccc(-c4ccccc4)c23)n1 [Compound 40, N-(6-Methoxypyridin-2-yl)-2-(1-methyl-1H-imidazol-2-yl)-5-phenylpyrrolo[2,1-f][1,2,4]triazin-4-amine] | 0 (0% inhibition) | 0 (0 = 0% inhibition) | 0 (0 = 0% inhibition) | 0 (0 = 0% inhibition) | 0 (0 = 0% inhibition) | A (A = 1-25% inhibition) | 0 (0 = 0% inhibition) | 0 (0 = 0% inhibition) | 0 (0 = 0% inhibition) | 1 to 25 | 1 to 25 |
| Cc1c(-c2ccn(C(C)C)n2)cn2nc(-c3nccn3C)nc(Nc3cc(C4CC4)no3)c12 [Compound 69, 3-Cyclopropyl-N-(6-(1-isopropyl-1H-pyrazol-3-yl)-5-methyl-2-(1-methyl-1H-imidazol-2-yl)pyrrolo[2,1-f][1,2,4]triazin-4-yl)isoxazol-5-amine] | D* (85-100% activation) | 0 (0 = 0% inhibition) | A (A = 1-25% inhibition) | A (A = 1-25% inhibition) | A (A = 1-25% inhibition) | 0 (0 = 0% inhibition) | A (A = 1-25% inhibition) | 0 (0 = 0% inhibition) | A (A = 1-25% inhibition) | 1 to 25 | 1 to 25 |
| COCCO[C@H]1C[C@H](Nc2nc(-c3nccn3C)nn3cc(-c4cccc(OC)c4F)c(-c4ccccc4)c23)C1 [Compound 44, 6-(2-Fluoro-3-methoxyphenyl)-N-((1r,3r)-3-(2-methoxyethoxy)cyclobutyl)-2-(1-methyl-1H-imidazol-2-yl)-5-phenylpyrrolo[2,1-f][1,2,4]triazin-4-amine] | B (26-49% inhibition) | B (B = 26-49% inhibition) | 0 (0 = 0% inhibition) | C (C = 50-75% inhibition) | B (B = 26-49% inhibition) | D (D = 76-100% inhibition) | D (D = 76-100% inhibition) | B (B = 26-49% inhibition) | 0 (0 = 0% inhibition) | 26 to 49 | 1 to 25 |
